A short description of data set [1]: Equilibrium loading data for metal salts, batch absorber experiments. It is filed as physicochemical. To be noted: atmospheric pressure; for SO2, ppm: equilibrium SO2 concentration; for Loading Capacity (fraction): equilibrium, aqueous absorption solution. As to the method: The following experiments were conducted in a batch absorber wherein a sulfur dioxide-containing gas was fed via a sparger below the liquid level in a vessel containing an aqueous absorption solution comprising various polyprotic carboxylic acid salts and the composition of the exhaust gas was monitored.
The sulfur dioxide-containing inlet gas 101 to be treated comprised nitrogen saturated with water vapor and a controlled concentration of sulfur dioxide. Temperatures (T) and pressure (P) were monitored during the experiment and gas samples (S) were taken at different times during the experiment. T1 and P1 are temperature and pressure sensors of inlet gas 101. S1 is a sampling point for inlet gas 101. T2 is a temperature sensor of the liquid in the vessel. T3 is a temperature sensor of exhaust gas 102.
In these experiments and other experiments reported in the Examples below, the gas concentrations were measured by gas chromatography and liquid concentrations were calculated by material balance.
All experiments were performed at atmospheric pressure. These experiments approach equilibrium concentrations and, in some cases, equilibrium data (denoted Eq. in the legend) are also included in the graphed results. For the equilibrium data, the compositions of the gas and liquid were diluted with excess caustic to maintain the sulfur dioxide in solution.
Total sulfur content was determined using ASTM Standard D1552, “Standard Test Method for Sulfur in Petroleum Products (High-Temperature Method”, DOI: 10.1520/D1552-08, available from ASTM International, West Conshohocken, Pa., www.astm.org.

For data set [2] the following is noted: cited from earlier work.

Molecules are shown by their SMILES. Read-outs that look alike come from different tables or passages of the source.

Turning to `O=C([O-])CC(O)(CC(=O)[O-])C(=O)[O-].[K+].[K+].[K+]` [K Cit, potassium citrate], in data set [1] (50 °C), the “SO2, ppm” value was 105.94 ppm and the “Loading Capacity (fraction)” value amounted to 0.2754 fraction. Further, in data set [1] (100 °C), the “SO2, ppm” value came out at 1162.54 ppm and the “Loading Capacity (fraction)” value was found to be 0.2668 fraction.
As for `CC(=O)CCC(=O)O` [Levulinic Acid], in data set [2] (25° C.), the pKa1 is on record as 4.59.
Consider `O=C([O-])c1ccccc1C(=O)[O-].[Na+].[Na+]` [Na Pha, sodium phthalate], for which, in data set [1] (50 °C), the “SO2, ppm” value was 1115.92 ppm and the “Loading Capacity (fraction)” value was found to be 0.6530 fraction. In addition, in data set [1] (100 °C), the “SO2, ppm” value turned out to be 11303.83 ppm and the “Loading Capacity (fraction)” value is 0.7250 fraction.
Consider `O=C([O-])CC(O)C(=O)[O-].[Na+].[Na+]` (stereo not shown) [Na Mal, sodium malate], for which, in data set [1] (50 °C), the “SO2, ppm” value is on record as 406.6 ppm and the “Loading Capacity (fraction)” value amounted to 0.1694 fraction. Also, in data set [1] (100 °C), the “SO2, ppm” value is recorded as 2169.06 ppm and the “Loading Capacity (fraction)” value is reported as 0.1416 fraction.
`O=C(O)CCCC(=O)O` [L-Glutaric Acid]: in data set [2] (25° C.), the pKa1 is reported as 4.31 and the pKa2 is reported as 5.41.
Turning to `O=C([O-])CCC(=O)[O-].[Na+].[Na+]` [Na Suc, sodium succinate], in data set [1] (50 °C), the “SO2, ppm” value amounted to 137.54 ppm and the “Loading Capacity (fraction)” value was 0.1045 fraction. In addition, in data set [1] (100 °C), the “SO2, ppm” value is listed as 1387.3 ppm and the “Loading Capacity (fraction)” value worked out at 0.2053 fraction.
For the compound `O=C(O)c1ccccc1C(=O)O` [o-Phthalic Acid], in data set [2] (25° C.), the pKa1 is 2.89 and the pKa2 is recorded as 5.51.
On to `O=C(O)c1cccnc1` [Nicotinic acid], for which, in data set [2] (temperature not given), the pKa1 is reported as 4.75.

(Values after US11185812B2, “Regenerative recovery of sulfur dioxide from effluent gases” (MECS, INC., priority 2010, dated 2021).)
